For experiment [1], the system named is late blight of potato (Phytophthora infestans). It counts as in vivo.
Another experiment deals with late blight of potato. Format: in vivo, Phytophthora infestans. Conditions: T4: foliar spray, 7 days interval; 0.8 ml/L.
The mark [2] stands for this setting: T3: foliar spray 30, 45, 60 and 75th day, dose 2.0 mL/Litre.
The mark [3] stands for this setting: T4: foliar spray 30, 45, 60 and 75th day, dose 2 g/lit.
Setting [4] is: T5: foliar spray 45th day only, dose 2 g/lit.

Like-named read-outs stand apart in the source and are kept apart here.

This is an account of results in patent US20250127176A1 (priority 2021, published 2025).

Take `C#CCOc1ccc(CCNC(=O)C(OCC#C)c2ccc(Cl)cc2)cc1OC` (centres unmarked) [Mandipropamid]: in experiment [1] (setting [2]), the “Per cent Disease Index (PDI)” value is 12.5% and the “Per cent reduction over control” value was 86.7%. Also, in the experiment with late blight of potato, the “Per cent Disease Index (PDI)” value was determined as 14.11% and the “Per cent reduction over control” value was determined as 83.40%.
Take Mancozeb: in experiment [1] (setting [3]), the “Per cent Disease Index (PDI)” value is 15.6% and the “Per cent reduction over control” value amounted to 83.4%. Further, in experiment [1] (setting [4]), the “Per cent Disease Index (PDI)” value worked out at 45.2% and the “Per cent reduction over control” value is 51.9%.
